Test results as given in ChEMBL document CHEMBL5303304, “EUbOPEN Chemogenomics Library - IncuCyte” (2023).

Legend:
Assay type in all cases: toxicity, cell-based
U2OS = assay: Incucyte cell viability with U2OS; settings: human, 10 µM, compound concentration 10 uM
HEK-293T = assay: Incucyte cell viability with HEK293T; settings: human, 10 µM, compound concentration 10 uM
Fibroblast = assay: Incucyte cell viability with human fibroblast; settings: 10 µM, compound concentration 10 uM
Note: unitless GR value; below 1 slowed growth and below 0 cell loss.

Structure (SMILES) | Growth Rate (U2OS; 0 h, replicate number 1) | Growth Rate (U2OS; 0 h, replicate number 2) | Growth Rate (U2OS; 12 h, replicate number 1) | Growth Rate (HEK-293T; 6 h, replicate number 2) | Growth Rate (HEK-293T; 12 h, replicate number 1) | Growth Rate (HEK-293T; 12 h, replicate number 2) | Growth Rate (HEK-293T; 18 h, replicate number 1) | Growth Rate (HEK-293T; 18 h, replicate number 2) | Growth Rate (HEK-293T; 24 h, replicate number 1) | Growth Rate (HEK-293T; 24 h, replicate number 2) | Growth Rate (Fibroblast; 6 h, replicate number 1) | Growth Rate (Fibroblast; 12 h, replicate number 2) | Growth Rate (Fibroblast; 18 h, replicate number 2) | Growth Rate (Fibroblast; 24 h, replicate number 1) | Growth Rate (Fibroblast; 24 h, replicate number 2) | Growth Rate (U2OS; 12 h, replicate number 2) | Growth Rate (U2OS; 24 h, replicate number 2) | Growth Rate (HEK-293T; 0 h, replicate number 2) | Growth Rate (Fibroblast; 12 h, replicate number 1) | Growth Rate (Fibroblast; 18 h, replicate number 1) | further results
O=C(Nc1ccccc1Br)N[C@@H]1CCN(c2ccc(C(F)(F)F)cn2)C1 [SB-705498] | -0.73 | -0.91 | 0.83 | -0.43 | 0.76 | -0.08 | 0.32 | 0.1 | 0.31 | 0.07 | 0.4 | 0.55 | 0.51 | 0.34 | 0.58 |  |  |  |  |  | Growth Rate (U2OS; 6 h, replicate number 1): 0.99; Growth Rate (Fibroblast; 0 h, replicate number 1): 0.33; Growth Rate (Fibroblast; 0 h, replicate number 2): 0.7; Growth Rate (Fibroblast; 6 h, replicate number 2): -0.3
COc1ccc(-n2nc(C(F)(F)F)cc2-c2ccc(Cl)cc2)cc1 [SC-560] |  |  |  | 0.8 |  |  |  |  |  | 0.9 | 0.63 | 0.09 | 0.54 | 0.68 | 0.62 | 0.86 | 0.98 | 0.61 | 0.59 | 0.62 | Growth Rate (U2OS; 6 h, replicate number 1): 0.67; Growth Rate (U2OS; 6 h, replicate number 2): 0.83; Growth Rate (U2OS; 18 h, replicate number 2): 0.95; Growth Rate (HEK-293T; 0 h, replicate number 1): 0.2; Growth Rate (Fibroblast; 0 h, replicate number 1): -1; Growth Rate (Fibroblast; 6 h, replicate number 2): -0.87
CO[C@H]1C[C@@H]2CC[C@@H](C)[C@@](O)(O2)C(=O)C(=O)N2CCCC[C@H]2C(=O)O[C@H]([C@H](C)C[C@@H]2CC[C@@H](O)[C@H](OC)C2)CC(=O)[C@H](C)/C=C(\C)[C@@H](O)[C@@H](OC)C(=O)[C@H](C)C[C@H](C)/C=C/C=C/C=C/1C [SIROLIMUS] |  | 0.94 | 0.93 | 0.36 | -0.06 | 0.13 | 0.16 | 0.23 | 0.26 | 0.3 | 0.43 | 0.93 | 0.97 | 0.35 | 0.84 | 0.81 |  | -0.17 | 0.47 | 0.23 | Growth Rate (U2OS; 24 h, replicate number 1): 0.94; Growth Rate (HEK-293T; 0 h, replicate number 1): -0.78; Growth Rate (HEK-293T; 6 h, replicate number 1): -0.13
CN1CCN(c2nc(C3=C(c4c[nH]c5ccccc45)C(=O)NC3=O)c3ccccc3n2)CC1 [SOTRASTAURIN] | -0.78 | -0.29 |  |  |  |  |  |  |  |  | -0.88 |  |  |  |  |  |  | -0.61 | -1 |  | Growth Rate (HEK-293T; 0 h, replicate number 1): -0.3; Growth Rate (Fibroblast; 0 h, replicate number 2): -0.97
CCOC(=O)N1CCC(CN(Cc2ccc(Cl)cc2)Cc2ccc([N+](=O)[O-])s2)C1 (centres undefined) [SR9009] | -0.35 |  | 0.94 | 0.23 | 0.42 | 0.27 | 0.48 | 0.28 | 0.41 | 0.35 | 0.43 | 0.2 | 0.38 | 0.48 | 0.39 |  |  |  | 0.41 | 0.3 | Growth Rate (HEK-293T; 6 h, replicate number 1): 0.39
CCCCCNC(=O)N1CCC(CN(Cc2ccc(Cl)cc2)Cc2ccc([N+](=O)[O-])s2)C1 (centres undefined) [SR9011] | 0.35 |  | 0.81 | 0.86 | 0.42 | 0.62 | 0.51 | 0.59 | 0.54 | 0.49 | 0.11 | 0.55 | 0.66 | 0.54 | 0.64 | 0.86 | 0.83 | -0.74 | 0.48 | 0.55 | Growth Rate (U2OS; 6 h, replicate number 1): 0.88; Growth Rate (U2OS; 6 h, replicate number 2): 0.94; Growth Rate (U2OS; 18 h, replicate number 1): 0.9; Growth Rate (U2OS; 18 h, replicate number 2): 0.94; Growth Rate (U2OS; 24 h, replicate number 1): 0.85; Growth Rate (HEK-293T; 6 h, replicate number 1): 0.47; Growth Rate (Fibroblast; 6 h, replicate number 2): -0.29
CC[N+](CC)(CC)CCOc1ccc(/C=C/c2ccccc2)cc1.[I-] [STILONIUM IODIDE] | -0.67 | -0.99 |  | 0 | -0.18 | -0.14 | -0.14 | -0.12 | -0.22 | -0.15 |  | 0.37 | 0.62 |  | 0.58 | 1 | 0.84 | 0.44 |  | 0.28 | Growth Rate (U2OS; 18 h, replicate number 2): 0.93; Growth Rate (HEK-293T; 0 h, replicate number 1): 1; Growth Rate (HEK-293T; 6 h, replicate number 1): -0.34; Growth Rate (Fibroblast; 0 h, replicate number 1): 0.94; Growth Rate (Fibroblast; 6 h, replicate number 2): -1
O=C1C[C@@H]2OCC=C3CN4CC[C@]56c7ccccc7N1[C@H]5[C@H]2[C@H]3C[C@H]46 [STRYCHNINE] |  |  | 0.95 | 0.44 |  | 0.86 |  |  |  |  | 0.71 |  | 0.93 | 0.81 | 0.91 | 0.85 | 0.91 | 0.94 | -0.92 | 0.57 | Growth Rate (U2OS; 6 h, replicate number 2): 0.65; Growth Rate (U2OS; 18 h, replicate number 1): 0.88; Growth Rate (U2OS; 18 h, replicate number 2): 0.77; Growth Rate (U2OS; 24 h, replicate number 1): 0.87; Growth Rate (HEK-293T; 0 h, replicate number 1): 0.93; Growth Rate (Fibroblast; 0 h, replicate number 2): -0.75
Nc1ccc(S(=O)(=O)Nc2ccnn2-c2ccccc2)cc1 [SULFAPHENAZOLE] |  | -0.29 | 0.83 |  | 0.6 |  | 0.44 | 0.98 | 0.45 |  | -0.25 |  |  | 0.6 |  | 1 | 0.91 |  | -1 |  | Growth Rate (U2OS; 6 h, replicate number 1): 0.27; Growth Rate (U2OS; 6 h, replicate number 2): 0.05; Growth Rate (U2OS; 18 h, replicate number 1): 0.83; Growth Rate (U2OS; 18 h, replicate number 2): 0.88; Growth Rate (U2OS; 24 h, replicate number 1): 0.86; Growth Rate (HEK-293T; 6 h, replicate number 1): 0.11; Growth Rate (Fibroblast; 0 h, replicate number 1): -0.67
CS(=O)(=O)NC(=O)CCC/C=C\C[C@H]1C(=O)C[C@@H](O)[C@@H]1/C=C/[C@@H](O)COc1ccccc1 [SULPROSTONE] | 0.72 | 0.8 | 0.97 | 0.91 | 0.92 |  | 0.99 |  |  |  | 0.27 | 0.39 | 0.47 | 0.79 | 0.63 | 0.91 | 0.94 | 0.72 | 0.85 | 0.95 | Growth Rate (U2OS; 6 h, replicate number 1): 0.89; Growth Rate (U2OS; 6 h, replicate number 2): 0.91; Growth Rate (U2OS; 18 h, replicate number 1): 0.83; Growth Rate (U2OS; 24 h, replicate number 1): 0.87; Growth Rate (HEK-293T; 0 h, replicate number 1): 0.99; Growth Rate (Fibroblast; 0 h, replicate number 1): -1; Growth Rate (Fibroblast; 0 h, replicate number 2): -0.81; Growth Rate (Fibroblast; 6 h, replicate number 2): 0.85
